Experiments:
[1] = tested on: H322C; assay: MTT cell viability, H322C; assay type: cell-based; settings: 96 h; Adenocarcinoma lung cell line H322C; 4 days incubation
Experimental: (§1) The ability of the flurbiprofen analog compounds of the invention to inhibit cancer cell growth and survival (viability) in a variety of cancer lines was examined in a standard MTT assay for cell viability, as detailed in Example 2.
(§2) The studies reported in Tables 1-3 above were carried out by incubating the cells in the test compound for four days, under standard cell-culture conditions, and measuring cell survival on day 5 (see Example 2).
(§3) Cell growth and survival following treatment with N—[(S)-2-Fluoro-α-methyl-4-biphenylacetyl]-[L-(4-phenylphenyl)alanine]-N-(2,2,6,6-tetramethyl-4-piperidinyl)amide (GCBH-110=B1031; (S)-Fmba-L-Bip-Atmp) were measured by a rapid colorimetric assay based on the tetrazolium salt MTT (3-(4,5-dimethylthiazol-2-yl)-2,5-diphenyl tetrazolium bromide) (Mosmann, J. Immunol. Methods 65: 55-63, 1983, with minor modifications).
(§4) Briefly, approximately 1,000-5,000 cancer cells from 15 different cancer cells lines were plated in 100 μL of growth medium in 96-well flat-bottomed microtiter plates. Cells were incubated overnight to allow recovery. Compounds to be tested were added to the cells in triplicate in a range of concentrations and the cells were incubated at 37° C., 5% CO2, with 100% humidity. Control cells were treated in the same way without antagonists. […] Absorbance was immediately determined using a scanning multiwell plate reader.

[2] = tested on: H3255; assay: MTT cell viability, H3255; assay type: cell-based; settings: Adenocarcinoma lung cell line H3255, 4 days incubation
Experimental: as §1, §2, §3, §4

[3] = tested on: H441; assay: MTT cell viability, H441; assay type: cell-based; settings: Homo sapiens, NCI-H441, 96 h; Adenocarcinoma lung cell line H441; 4 days incubation
Experimental: as §1, §2, §3, §4

[4] = tested on: H1264; assay: MTT cell viability, H1264; assay type: cell-based; settings: 96 h; Adenosquamous lung cell line H1264; 4 days incubation
Experimental: as §1, §2, §3, §4

[5] = tested on: H460b; assay: MTT cell viability, H460b; assay type: cell-based; settings: 96 h; Large Cell lung cell line H460b; 4 days incubation
Experimental: as §1, §2, §3, §4

[6] = tested on: H513; assay: MTT cell viability, H513; assay type: cell-based; settings: 96 h; Mesothelioma lung cell line H513; 4 days incubation
Experimental: as §1, §2, §3, §4

[7] = tested on: H226; assay: MTT cell viability, H226; assay type: cell-based; settings: Homo sapiens, NCI-H226, 96 h; Squamous Mesothelioma lung cell line H226; 4 days incubation
Experimental: as §1, §2, §3, §4

[8] = tested on: SHP77; assay: MTT cell viability, SHP77; assay type: cell-based; settings: SCLC lung cell line SHP77, 4 days incubation
Experimental: as §1, §2, §3, §4

[9] = tested on: H446; assay: MTT cell viability, H446; assay type: cell-based; settings: Homo sapiens, NCI-H446, 96 h; SCLC lung cell line H446; 4 days incubation
Experimental: as §1, §2, §3, §4

[10] = tested on: UMSCC22B; assay: MTT cell viability, UMSCC22B; assay type: cell-based; settings: Homo sapiens; Head and neck cancer cell line UMSCC22B
Experimental: as §1
(§5) A similar study was conducted on 14 […] cancer cell lines, identified in Table 2.
as §3
(§6) Briefly, approximately 1,000-5,000 cancer cells from 15 different cancer cells lines were plated in 100 μL of growth medium in 96-well flat-bottomed microtiter plates. Cells were incubated overnight to allow recovery. Compounds to be tested were added to the cells in triplicate in a range of concentrations and the cells were incubated at 37° C., 5% CO2, with 100% humidity. Control cells were treated in the same way without antagonists. […] Plates were incubated for 4 days, allowing sufficient time for cell replication and compound-induced cell death to occur. […] Absorbance was immediately determined using a scanning multiwell plate reader. […]

[11] = tested on: 1483; assay: MTT cell viability, 1483; assay type: cell-based; settings: Head and neck cancer cell line 1483
Experimental: as §1, §5, §3, §6

[12] = tested on: UMSCC22A; assay: MTT cell viability, UMSCC22A; assay type: cell-based; settings: Head and neck cancer cell line UMSCC22A
Experimental: as §1, §5, §3, §6

[13] = tested on: Panc-1; assay: MTT cell viability, Panc-1; assay type: cell-based; settings: Homo sapiens, 96 h; Pancreatic cancer cells Panc-1; 4 days incubation
Source text: as §1
Similar results were obtained for the effect of the B1031 compound on the 14 pancreatic tumor cells lines shown in Table 3 below, where the dose dependent effect of the compound on survival of the pancreatic cancer cell lines is shown in FIG. 5.
as §2, §3
Briefly, approximately 1,000-5,000 cancer cells from 15 different cancer cells lines were plated in 100 μL of growth medium in 96-well flat-bottomed microtiter plates. Cells were incubated overnight to allow recovery. […] Absorbance was immediately determined using a scanning multiwell plate reader.

[14] = tested on: BTIC EF12 brain tumor initiating stem cells; assay: Inhibition of BTIC EF12 brain tumor initiating stem cells; assay type: cell-based; settings: at 10 μM, FIG. 6B
Experimental: (§7) FIGS. 6A and 6B show the loss in cell viability in HT-29 colon cancer cells, in response to increasing concentrations of GH 502 (GCBH 118) (FIG. 6A), and the effect of various treatments, including increasing concentration of GH501 (GCBH 110) on U251 malignant glioma cells and BTIC EF12 brain tumor initiating stem cells (FIG. 6B).
(§8) The study shown in FIG. 6A examined the effect of GCBH-118 (GH502) on an HT-29 colon cancer cell, showing an IC50 value of about 1 μM. […] The graph indicates an IC50 value for the B1031 compound against the U251 brain cancer cell line of between 2 and 10 μM.

[15] = tested on: U251 malignant glioma cells; assay: Inhibition of U251 malignant glioma cells; assay type: cell-based; settings: Homo sapiens, U-251; U251 brain cancer cell line, FIG. 6B
Experimental: as §7, §8

[16] = tested on: MiaPaCa pancreatic carcinoma solid tumor xenograft; assay: MiaPaCa pancreatic carcinoma xenograft in nude mice; assay type: in vivo, athymic nude mice; settings: 5 mg/kg/every day intraperitoneal, beginning on the eleventh day following implantation, FIG. 12
Experimental: Similar results were obtained when the treatment method was applied to animals having pancreatic carcinoma implants, as shown in FIG. 12.
In a second study, athymic nude mice were implanted subcutaneously with suspensions of approximately 2 million MiaPaCa pancreatic carcinoma cells, in Matrigel suspension. […] The compound was initially dissolved in dimethyl sulfoxide (DMSO) and diluted with medium. Tumor size was measured with a caliper three times per week, and tumor volume calculated as above. At autopsy, tumors were removed and weighed.

C[C@H](C(=O)N[C@@H](Cc1ccc(-c2ccccc2)cc1)C(=O)NC1CC(C)(C)NC(C)(C)C1)c1ccc(-c2ccccc2)c(F)c1 [GCBH-110, N—[(S)-2-Fluoro-α-methyl-4-biphenylacetyl]-[L-(4-phenylphenyl)alanine]-N-(2,2,6,6-tetramethyl-4-piperidinyl)amide] showed an IC50 [1] of 450 nM, an IC50 ([2]; listed as B1031) of 900 nM and an IC50 ([2]; Homo sapiens, NCI-H3255, 96 h) of 910 nM. For the same compound, the IC50 [3] was 1600 nM, the IC50 [4] was 630 nM and the IC50 [5] was 400 nM. For the same compound, the IC50 [6] was 1800 nM, the IC50 [7] was 203 nM and the IC50 ([8]; Homo sapiens, SHP77, 96 h) was 500 nM. The IC50 ([8]; listed as B1031) was 530 nM, the IC50 [9] was 440 nM and the IC50 [10] was 300 nM. For the same compound, the IC50 [11] was 300 nM, the IC50 [12] was 430 nM and the IC50 [13] was 810 nM. For the same compound, the “compound inhibition of the BTIC EF12 cells” value [14] was “inhibition”, the IC50 [15] was 2000 to 10000 nM and the “inhibition of MiaPaCa pancreatic carcinoma tumor growth” value [16] was 66%.

From patent US8575170B2, “Flurbiprofen analogs and methods of use in treating cancer” (The Regents of the Unversity of Colorado, a body corporate, priority 2010, dated 2013)
